Assay results taken from ChEMBL document CHEMBL4346760, “Alkynamide phthalazinones as a new class of TbrPDEB1 inhibitors (Part 2)” (Bioorg Med Chem, 2019).
Calls of active or inactive are those of the source. No cut-off for these calls is given here.

How the values were obtained:
[1] = target: T1, Class 1 phosphodiesterase PDEB1 (Trypanosoma brucei, UniProt Q8WQX9); test: Inhibition of Trypanosoma brucei PDEB1 catalytic domain using cAMP as substrate incubated for 20 mins by PDELight HTS cAMP phosphodiesterase Kit based luminometry
T1 sequence (Q8WQX9 whole entry): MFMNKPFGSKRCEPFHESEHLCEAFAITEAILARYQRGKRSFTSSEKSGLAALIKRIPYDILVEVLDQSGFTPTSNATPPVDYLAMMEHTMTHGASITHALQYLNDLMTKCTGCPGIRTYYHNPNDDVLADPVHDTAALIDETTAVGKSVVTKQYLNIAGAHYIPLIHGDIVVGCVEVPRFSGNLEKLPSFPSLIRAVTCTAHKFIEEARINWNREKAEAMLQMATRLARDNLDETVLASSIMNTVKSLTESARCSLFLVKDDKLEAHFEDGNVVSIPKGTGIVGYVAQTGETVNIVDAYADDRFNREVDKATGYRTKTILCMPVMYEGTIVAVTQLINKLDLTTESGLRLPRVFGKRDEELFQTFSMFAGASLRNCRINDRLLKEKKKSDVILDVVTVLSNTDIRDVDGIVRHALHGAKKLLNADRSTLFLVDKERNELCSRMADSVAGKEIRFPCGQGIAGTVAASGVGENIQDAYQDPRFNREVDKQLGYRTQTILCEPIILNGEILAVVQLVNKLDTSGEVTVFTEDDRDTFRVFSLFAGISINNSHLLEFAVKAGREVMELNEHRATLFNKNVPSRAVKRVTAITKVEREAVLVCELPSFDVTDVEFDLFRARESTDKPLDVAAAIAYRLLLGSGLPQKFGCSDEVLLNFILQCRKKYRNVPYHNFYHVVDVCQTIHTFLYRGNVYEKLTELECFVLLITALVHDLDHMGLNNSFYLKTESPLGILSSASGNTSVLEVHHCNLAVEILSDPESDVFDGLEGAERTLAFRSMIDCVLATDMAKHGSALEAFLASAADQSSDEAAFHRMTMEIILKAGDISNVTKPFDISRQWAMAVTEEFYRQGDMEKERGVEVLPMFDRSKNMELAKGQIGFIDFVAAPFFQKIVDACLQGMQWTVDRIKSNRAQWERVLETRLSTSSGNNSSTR

[2] = target: 3',5'-cyclic-AMP phosphodiesterase 4B (Homo sapiens, UniProt Q07343); test: Inhibition of human PDE4B catalytic domain using cAMP as substrate incubated for 20 mins by PDELight HTS cAMP phosphodiesterase Kit based luminometry
[3] = target: T1, Class 1 phosphodiesterase PDEB1; test: Binding affinity to Trypanosoma brucei PDEB1 assessed as dissociation constant treated for 60 secs measured for 300 secs by SPR assay
[4] = target: T2, 3',5'-cyclic-AMP phosphodiesterase 4D (Homo sapiens, UniProt Q08499); test: Binding affinity to human PDE4D assessed as dissociation constant treated for 60 secs measured for 300 secs by SPR assay
Trypanosoma brucei [5] = test: Antitrypanosomal activity against Trypanosoma brucei Squib 427 trypomastigotes assessed as reduction in parasite growth incubated for 72 hrs by resazurin dye-based fluorimetric analysis; type: functional, organism-based; conditions: Squib 427, 72 h
[6] = Cytotoxicity against human MRC5 cells assessed as reduction in cell viability incubated for 72 hrs by resazurin dye-based fluorimetric analysis
Trypanosoma brucei [7] = test: Antitrypanosomal activity against bloodstream form of Trypanosoma brucei 221 cells assessed as blockade in cytokinesis with multiple flagella and nuclei formation at 1 uM incubated for 24 to 48 hrs by DAPI/PFR-staining based fluorescence microscopy; type: functional, organism-based
[8] = target: T1, Class 1 phosphodiesterase PDEB1; test: Binding affinity to Trypanosoma brucei PDEB1 assessed as dissociation constant treated for 320 secs measured for 900 secs by SPR assay
[9] = target: T2, 3',5'-cyclic-AMP phosphodiesterase 4D; test: Binding affinity to human PDE4D assessed as dissociation constant treated for 320 secs measured for 900 secs by SPR assay
Trypanosoma brucei [10] = test: Antitrypanosomal activity against procyclic form of Trypanosoma brucei 2913 assessed as increase in intracellular cAMP level at 1 to 10 uM by cAMP sensor based FRET assay; type: functional, organism-based
[11] = Selectivity index, ratio of pKi for Trypanosoma brucei PDEB1 to pKi for human PDE4B using cAMP as substrate incubated for 20 mins by PDELight HTS cAMP phosphodiesterase Kit based luminometry

Chain of 3',5'-cyclic-AMP phosphodiesterase 4B (Q07343 whole entry, the tested form may be a part): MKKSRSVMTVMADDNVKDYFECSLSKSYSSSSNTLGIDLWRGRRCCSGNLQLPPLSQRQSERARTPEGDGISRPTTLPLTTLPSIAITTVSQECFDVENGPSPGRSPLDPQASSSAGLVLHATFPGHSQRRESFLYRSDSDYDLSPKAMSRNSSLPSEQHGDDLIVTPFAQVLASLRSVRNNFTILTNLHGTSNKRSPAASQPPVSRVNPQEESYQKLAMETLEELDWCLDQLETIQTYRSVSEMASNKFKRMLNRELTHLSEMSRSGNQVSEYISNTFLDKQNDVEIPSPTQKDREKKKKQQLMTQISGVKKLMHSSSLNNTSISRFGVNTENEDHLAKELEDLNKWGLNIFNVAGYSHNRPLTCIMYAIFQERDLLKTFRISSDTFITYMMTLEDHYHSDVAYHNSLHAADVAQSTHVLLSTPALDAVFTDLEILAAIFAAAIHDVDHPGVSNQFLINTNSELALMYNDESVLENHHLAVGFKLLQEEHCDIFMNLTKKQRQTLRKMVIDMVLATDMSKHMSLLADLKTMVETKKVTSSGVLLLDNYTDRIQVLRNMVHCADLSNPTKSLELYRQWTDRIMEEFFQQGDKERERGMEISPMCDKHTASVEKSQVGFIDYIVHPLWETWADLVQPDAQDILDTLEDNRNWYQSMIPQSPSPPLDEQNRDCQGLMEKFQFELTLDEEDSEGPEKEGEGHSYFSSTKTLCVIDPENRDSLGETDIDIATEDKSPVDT
T2 sequence (Q08499 whole entry): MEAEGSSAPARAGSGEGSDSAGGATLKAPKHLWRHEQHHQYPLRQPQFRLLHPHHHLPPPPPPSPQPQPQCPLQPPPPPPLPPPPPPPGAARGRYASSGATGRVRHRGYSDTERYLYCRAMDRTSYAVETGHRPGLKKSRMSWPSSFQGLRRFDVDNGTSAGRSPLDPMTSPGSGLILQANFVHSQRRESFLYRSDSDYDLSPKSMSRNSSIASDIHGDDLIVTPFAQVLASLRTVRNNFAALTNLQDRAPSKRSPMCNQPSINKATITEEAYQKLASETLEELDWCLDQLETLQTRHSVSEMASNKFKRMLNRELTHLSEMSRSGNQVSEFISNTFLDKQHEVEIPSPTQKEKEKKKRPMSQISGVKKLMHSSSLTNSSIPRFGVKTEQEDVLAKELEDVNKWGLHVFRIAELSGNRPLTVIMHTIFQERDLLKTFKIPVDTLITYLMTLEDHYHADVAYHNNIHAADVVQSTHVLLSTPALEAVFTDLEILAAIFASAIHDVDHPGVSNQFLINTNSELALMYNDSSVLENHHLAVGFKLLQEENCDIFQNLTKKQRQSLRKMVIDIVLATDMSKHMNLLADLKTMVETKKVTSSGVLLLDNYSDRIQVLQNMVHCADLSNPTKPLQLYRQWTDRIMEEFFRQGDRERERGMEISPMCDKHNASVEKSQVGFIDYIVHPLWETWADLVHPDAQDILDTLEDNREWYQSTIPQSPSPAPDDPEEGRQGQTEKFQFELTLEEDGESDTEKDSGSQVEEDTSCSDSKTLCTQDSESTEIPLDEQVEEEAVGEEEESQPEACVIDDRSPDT

Compound | Ki [1] [nM] | Ki [2] [nM] | Kd [3] [nM] | Kd [4] [nM] | IC50 (Trypanosoma brucei [5]) [nM] | Kd [8] [nM] | Kd [9] [nM] | Ratio pKi [11] | CC50 at 72 h [6] [µM] | Activity (Trypanosoma brucei [7]) | Activity (Trypanosoma brucei [10])
COc1ccc(C2=NN(C(C)C)C(=O)[C@@H]3CC=CC[C@H]23)cc1C#CC(N)=O (relative stereo) | 501 | 316 | 794 | 251 | 6310 | – | – | – | 31.6 | – | –
COc1ccc(C2=NN(C(C)C)C(=O)[C@@H]3CC=CC[C@H]23)cc1C#CC(=O)NCCC#N (relative stereo) | 1000 | 794 | – | – | 25100 | – | – | – | 31.6 | – | –
COc1ccc(C2=NN(C(C)C)C(=O)[C@@H]3CC=CC[C@H]23)cc1C#CC(=O)NCCCn1ccnc1 (relative stereo) | 398 | 631 | – | – | 7940 | – | – | – | 0.251 | – | –
COc1ccc(C2=NN(C3CCCCCC3)C(=O)[C@@H]3CC=CC[C@H]23)cc1C#CC(N)=O | 631 | 316 | – | – | – | – | – | – | – | – | –
COc1ccc(C2=NN(C(C)C)C(=O)[C@@H]3CC=CC[C@H]23)cc1C#CC(=O)Nc1cnn(C)n1 (relative stereo) | 2510 | 501 | – | – | > 63100 | – | – | – | 10 | – | –
COc1ccc(C2=NN(C(C)C)C(=O)[C@@H]3CC=CC[C@H]23)cc1C#CC(=O)N1CC(C#N)C1 (relative stereo) | 631 | 398 | – | – | 7940 | – | – | – | 7.94 | – | –
COc1ccc(C2=NN(C(C)C)C(=O)[C@@H]3CC=CC[C@H]23)cc1C#CC(=O)N1CCOCC1 (relative stereo) | 1000 | 794 | – | – | 10000 | – | – | – | 31.6 | – | –
COc1ccc(C2=NN(C(C)C)C(=O)[C@@H]3CC=CC[C@H]23)cc1C#CC(=O)NCC1CC1 (relative stereo) | 398 | 316 | – | – | 7940 | – | – | – | > 63.1 | – | –
COc1ccc(C2=NN(C3CCCCCC3)C(=O)[C@@H]3CC=CC[C@H]23)cc1-c1ccc(C(=O)NCC(N)=O)cc1 | – | – | – | – | – | – | – | 1 | – | – | –
COc1ccc(C2=NN(C(C)C)C(=O)[C@@H]3CC=CC[C@H]23)cc1C#CC(=O)NCC1CCCO1 (relative stereo) | 398 | 1260 | – | – | 7940 | – | – | – | 31.6 | – | –
COc1ccc(C2=NN(C(C)C)C(=O)[C@@H]3CC=CC[C@H]23)cc1C#CC(=O)Nc1ccn(CCCC#N)n1 (relative stereo) | 794 | 1260 | – | – | 2000 | – | – | – | 7.94 | – | –
COc1ccc(C2=NN(C(C)C)C(=O)[C@@H]3CC=CC[C@H]23)cc1C#CC(=O)NCc1csc(C)n1 (relative stereo) | 316 | 1000 | – | – | 2000 | – | – | – | 12.6 | – | –
COc1ccc(C2=NN(C(C)C)C(=O)[C@@H]3CC=CC[C@H]23)cc1C#CC(=O)NCCc1cccs1 (relative stereo) | 398 | 794 | – | – | 2510 | – | – | – | > 63.1 | – | –

Now from value to compound, other results behind:

Ki [1] [nM] | Ki [2] [nM] | Kd [3] [nM] | Kd [4] [nM] | IC50 (Trypanosoma brucei [5]) [nM] | Kd [8] [nM] | Kd [9] [nM] | Ratio pKi [11] | Compound | CC50 at 72 h [6] [µM] | Activity (Trypanosoma brucei [7]) | Activity (Trypanosoma brucei [10])
126 | 631 | – | – | 1580 | – | – | – | COc1ccc(C2=NN(C(C)C)C(=O)[C@@H]3CC=CC[C@H]23)cc1C#CC(=O)NCc1cnn(C)c1 | 20 | – | –
126 | 398 | – | – | 2510 | – | – | – | COc1ccc(C2=NN(C(C)C)C(=O)[C@@H]3CC=CC[C@H]23)cc1C#CC(=O)NCc1ccco1 (relative stereo) | > 63.1 | – | –
126 | 501 | – | – | 1000 | – | – | – | COc1ccc(C2=NN(C(C)C)C(=O)[C@@H]3CC=CC[C@H]23)cc1C#CC(=O)NCc1cccs1 (relative stereo) | 63.1 | – | –
316 | 794 | – | – | 6310 | – | – | – | COc1ccc(C2=NN(C(C)C)C(=O)[C@@H]3CC=CC[C@H]23)cc1C#CC(=O)NCC1CCC1 (relative stereo) | > 63.1 | – | –
200 | 251 | – | – | 2000 | – | – | – | COc1ccc(C2=NN(C(C)C)C(=O)[C@@H]3CC=CC[C@H]23)cc1C#CC(=O)NCc1sc(C)nc1C (relative stereo) | 7.94 | – | –
316 | 501 | – | – | 7940 | – | – | – | CCCCNC(=O)C#Cc1cc(C2=NN(C(C)C)C(=O)[C@@H]3CC=CC[C@H]23)ccc1OC (relative stereo) | > 63.1 | – | –
158 | 794 | – | – | 631 | 79.4 | 79.4 | – | COc1ccc(C2=NN(C(C)C)C(=O)[C@@H]3CC=CC[C@H]23)cc1C#CC(=O)NCc1ccccc1 (relative stereo) | > 63.1 | Active | Active
100 | 631 | – | – | 1000 | – | – | – | COc1ccc(C2=NN(C(C)C)C(=O)[C@@H]3CC=CC[C@H]23)cc1C#CC(=O)NCc1ccncc1 (relative stereo) | 31.6 | Active | Active
200 | 200 | – | – | 3160 | – | – | – | COc1ccc(C2=NN(C(C)C)C(=O)[C@@H]3CC=CC[C@H]23)cc1C#CC(=O)NCc1ccc(C)o1 (relative stereo) | > 63.1 | – | –
100 | 501 | – | – | 1260 | – | – | – | COc1ccc(C2=NN(C(C)C)C(=O)[C@@H]3CC=CC[C@H]23)cc1C#CC(=O)NCc1cccnc1 (relative stereo) | 3.98 | – | –
251 | 398 | – | – | 5010 | – | – | – | COc1ccc(C2=NN(C(C)C)C(=O)[C@@H]3CC=CC[C@H]23)cc1C#CC(=O)NCCc1nccs1 (relative stereo) | 10 | – | –
200 | 1000 | – | – | 1580 | – | – | – | COc1cccc(NC(=O)C#Cc2cc(C3=NN(C(C)C)C(=O)[C@@H]4CC=CC[C@H]34)ccc2OC)c1 (relative stereo) | > 63.1 | – | –
316 | 794 | – | – | 2000 | – | – | – | COc1ccc(C2=NN(C(C)C)C(=O)[C@@H]3CC=CC[C@H]23)cc1C#CC(=O)NCCc1ccccc1F (relative stereo) | > 63.1 | – | –
